In the oligonucleotide strings, read from the 5' end, every base follows the letter of its sugar. An asterisk marks phosphorothioate; unmarked linkages are phosphodiester. Other units and linkages are bracketed, terminal groups are in braces. A string of capitals states the bases alone. d = 2'-deoxy (DNA)
Columns and labels:
MYCN gene = experiment: QT-PCR, MYCN mRNA in RH30 cells; assay type: cell-based, human
Description: For the purpose of assessing the ability of the oligonucleotides of the present invention to modulate the expression of the target genes, their ability to reduce the quantity of messenger RNA was analyzed using the Real-Time PCR technique. For this purpose, use was made of 24-well plates, which were seeded with 5.0×10^4 cells with 0.3 ml of OPTI-MEM (GIBCO BRL) medium, 4% FBS and 2 mM L-glutammine (experiments in triplicate) per well. The cells were incubated for 24 hours at 37° C., in an atmosphere containing 5% CO2 to permit adherence to the base of the wells. Each oligonucleotide analyzed, except for the PNA oligonucleotides, was incubated beforehand with 2 μl of Lipofectamine 2000 (Invitrogen), with 0.3 mL of serum-free OPTI-MEM (GIBCO BRL) medium. For each well, the oligonucleotides were analyzed at the following final concentrations: • the antisense oligonucleotides siRNA and siRNA gapmer (i.e. the oligonucleotides containing one or more monomers of chemically modified nucleic acids at the 3' or 5' end, while in the central portion they have monomers of nucleic acids that have not been modified or have been modified at the level of the phosphodiester bond as a phosphorothioate bond) were used at 200 nM; • the antisense oligonucleotides containing phosphorothioate DNA monomers, the RNA antigene oligonucleotides (agRNA) and the oligonucleotides containing DNA monomers and LNA monomers were used at 10 μM; • the morpholino oligonucleotides were used at a concentration of 1 μM, and • the PNA oligonucleotides were administered at a concentration of 1 μM. The cells were treated with the oligonucleotides, adding FBS up to 4% 6 hours after administration of the same. After 24 hours the total RNA was extracted from each well and purified using the RNeasy Mini Kit (QIAGEN). Assays were performed on 8 cell lines obtained from 5 different human tumours which are correlated with MYCN expression, i.e.: • as a neuroblastoma model use was made of the cell lines Kelly, IMR-32 (where the MYCN gene is amplified and superexpressed) and SKNBE2c and LAN1 (where the MYCN gene is amplified and superexpressed and the p53 gene is mutated); • as a rabdomiosarcoma model use was made of the cell line RH30, where the MYCN gene is amplified and superexpressed; • as a Wilms' tumour model use was made of the cell line WiT49, where the MYCN gene is amplified and superexpressed; • as a retinoblastoma model use was made of the cell line Y79, where the MYCN gene is amplified and superexpressed; and • as a model of small cell lung cancer use was made of the cell line H69 where the MYCN gene is amplified and superexpressed. As a control, use was made of the same cell lines as listed above treated with sterile water instead of oligonucleotides. Each RNA sample was quantified (in duplicate) using a NanoDrop ND-1000 spectrophotometer (NanoDrop Technologies). The first strand of cDNA was produced using the cDNA Synthesis Kit for RT-PCR (Roche). For the cDNA synthesis reaction a total of 1 μg of RNA was used. For the real-time PCR, 10 ng of cDNA in a final volume of 20 μl was used with SYBR Green Master Mix 2× (Applied Biosystems) (3 identical experiments were conducted in triplicate). Two housekeeping genes were used as positive controls: GAPDH and beta-actin (ACTB). The conditions of the QT-PCR reaction were: 10 min at 95° C., 20 sec at 95° C., and 30 sec at 60° C., for 50 cycles. The PNAs having SEQ ID NO: 1-12 were also tested on different cell lines which overexpress MYCN (Kelly, SKNBE2c, RH30, […] 1 and H69). The results are shown in Table 6 and confirm the selectivity and specificity of the inhibition effect of the PNAs on the product of protein translation of the MYCN gene. Chimeric oligonucleotides comprising DNA monomers and LNA monomers and having the MYCN gene as their target were tested in vitro on alveolar rabdomyosarcoma cells (RH30). […]

[1] = test system: rabdomyosarcoma cells (RH30); experiment: Cellular proliferation assay (ATP-Lite), RH30 cells; assay type: cell-based, human
Description: For the purpose of assessing the gene modulation ability of the oligonucleotides of the present invention, the effect of their administration on cell viability was determined. For this purpose 5×10^3 cells per well were seeded into 96-well cell culture plates (experiments conducted in triplicate) with 100 μl of OPTI-MEM (GIBCO BRL) medium containing 4% FBS and 2 mM of L-glutammine. The PNA oligonucleotides were administered at different concentrations (1 μM-2.5 μM-5 μM-10 μM) in order to observe a dose-effect relationship. As regards all the other oligonucleotides, the concentrations at which they administered are listed in the paragraph: The viability of the treated cells was determined at 48, 72, 96 and 168 hours after treatment. Cell viability was assessed by means of an ATP-Lite assay (Luminescence ATP Detection Assay System, PerkinElmer) and is reported as the ratio between the average signal of the treated wells compared to the average value of the wells of untreated control cells. The cells were processed following the instructions provided with the kit. The assays were performed on the same cell lines used to determine the levels of the MYCN gene messenger and listed in the paragraph: Treatments with Oligonucleotides-QT-PCR. The PNAs having SEQ ID NO: 1-12 were also tested on different cell lines which overexpress MYCN (Kelly, SKNBE2c, RH30, […] 1 and H69). The results are shown in Table 6 and confirm the selectivity and specificity of the inhibition effect of the PNAs on the product of protein translation of the MYCN gene. Chimeric oligonucleotides comprising DNA monomers and LNA monomers and having the MYCN gene as their target were tested in vitro on alveolar rabdomyosarcoma cells (RH30). […] The antisense oligonucleotides designed and synthesized by the Applicant according to the parameters described in the present invention were analyzed in vitro on rabdomyosarcoma cells (RH30).

[2] = Table 9, siRNA and siRNA gapmer used at 200 nM with Lipofectamine 2000
[3] = Table 9, siRNA and siRNA gapmer used at 200 nM
[4] = Table 8, DNA-LNA oligonucleotides used at 10 μM with Lipofectamine 2000
[5] = Table 8, DNA-LNA oligonucleotides used at 10 μM
[6] = Table 9, phosphorothioate DNA antisense used at 10 μM with Lipofectamine 2000
[7] = Table 9, phosphorothioate DNA antisense used at 10 μM

Row | Substance | mRNA inhibition (%) (MYCN gene; [2]) | Cell Prolif. (%) [1, 3] [%] | further results
1 | SEQ ID NO: 36: double-stranded chimeric RNA / arabinoside RNA siRNA against MYCN, sense CAGGAAGAUGAAGAGGAAGAA, antisense SEQ ID NO: 65 (antisense GUUCCUCUUCAUCUUCCUCAA; arabinoside modifications, further chemistry not given here) | 69 | 35 | –
2 | SEQ ID NO: 27: double-stranded siRNA against MYCN, sense GAUGAUGAAGAGGAAGAUG, antisense SEQ ID NO: 58 (antisense CAUCUUCCUCUUCAUCAUC; listed as RNA, chemistry not given here) | 70 | 43 | –
3 | SEQ ID NO: 26: double-stranded siRNA against MYCN, sense UGAAGAUGAUGAAGAGGAA, antisense SEQ ID NO: 57 (antisense UUCCUCUUCAUCAUCUUCA; listed as RNA, chemistry not given here) | 82 | 28 | –
4 | SEQ ID NO: 25: single-stranded chimeric DNA-LNA oligonucleotide ATGCCGGGCATGATCT against MYCN (DNA at AG, LNA at CT, backbone and methylation of C not given here) | – | – | mRNA inhibition (%) (MYCN gene; [4]): 24%; Cell Prolif. (%) [1, 5]: 78%
5 | SEQ ID NO: 32: phosphorothioate DNA antisense oligonucleotide CAGGGTGTCCTCTCCGGA against MYCN (antisense dC*dA*dG*dG*dG*dT*dG*dT*dC*dC*dT*dC*dT*dC*dC*dG*dG*dA) | – | – | mRNA inhibition (%) (MYCN gene; [6]): 45%; Cell Prolif. (%) [1, 7]: 65%
6 | SEQ ID NO: 24: single-stranded chimeric DNA-LNA oligonucleotide ATGCCGGGCATGATCT against MYCN (DNA at CT, LNA at AG, backbone and methylation of C not given here) | – | – | mRNA inhibition (%) (MYCN gene; [4]): 23%; Cell Prolif. (%) [1, 5]: 75%
7 | SEQ ID NO: 30: double-stranded siRNA against MYCN, sense GGAAGAUGAAGAGGAAGAA, antisense SEQ ID NO: 61 (antisense UUCUUCCUCUUCAUCUUCC; listed as RNA, chemistry not given here) | 81 | 30 | –
8 | SEQ ID NO: 28: double-stranded siRNA against MYCN, sense UGAUGAAGAGGAAGAUGAA, antisense SEQ ID NO: 59 (antisense UUCAUCUUCCUCUUCAUCA; listed as RNA, chemistry not given here) | 78 | 35 | –
9 | SEQ ID NO: 31: phosphorothioate DNA antisense oligonucleotide CGTGGAGCAGCTCGGCAT against MYCN (antisense dC*dG*dT*dG*dG*dA*dG*dC*dA*dG*dC*dT*dC*dG*dG*dC*dA*dT) | – | – | mRNA inhibition (%) (MYCN gene; [6]): 34%; Cell Prolif. (%) [1, 7]: 73%
10 | SEQ ID NO: 34: double-stranded chimeric RNA / 2′-Fluoro siRNA against MYCN, sense CAGGAAGAUGAAGAGGAAGUU, antisense SEQ ID NO: 63 (antisense GUUCCUCUUCAUCUUCCUCUU; RNA with some 2'-fluoro monomers, positions not given here) | 59 | 52 | –

From patent US10752900B2, “Oligonucleotides for modulating gene expression and uses thereof” (BIOGENERA S.P.A., priority 2012, dated 2020)
